Results: patent publication US10670605B2, “Cysteine reactive probes and uses thereof” (The Scripps Research Institute, priority 2015, dated 2020)

What was measured:
Test in all cases: Competitive isoTOP-ABPP, cell lysates
Assay type in all cases: binding
[1] = biological target: IDH1 C269 (O75874) (Homo sapiens, UniProt O75874); details: 250 μM, in vitro
[2] = biological target: T1, ADA C75 (P00813) (Homo sapiens, UniProt P00813); details: 250 μM, in vitro, Ramos
T1 sequence (P00813 1-363): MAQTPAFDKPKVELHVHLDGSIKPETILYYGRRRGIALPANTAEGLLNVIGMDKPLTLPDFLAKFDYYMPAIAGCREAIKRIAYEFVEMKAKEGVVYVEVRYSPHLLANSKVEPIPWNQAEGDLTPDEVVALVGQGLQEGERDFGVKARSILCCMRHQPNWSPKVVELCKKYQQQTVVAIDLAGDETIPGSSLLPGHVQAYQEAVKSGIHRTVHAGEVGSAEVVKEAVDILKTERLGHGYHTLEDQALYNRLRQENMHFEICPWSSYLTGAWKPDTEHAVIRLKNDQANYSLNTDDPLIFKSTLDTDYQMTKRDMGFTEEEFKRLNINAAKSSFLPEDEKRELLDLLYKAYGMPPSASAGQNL

[3] = biological target: T2, AIP C122 (O00170) (Homo sapiens, UniProt O00170); details: 250 μM, in vitro
T2 sequence (O00170 1-330): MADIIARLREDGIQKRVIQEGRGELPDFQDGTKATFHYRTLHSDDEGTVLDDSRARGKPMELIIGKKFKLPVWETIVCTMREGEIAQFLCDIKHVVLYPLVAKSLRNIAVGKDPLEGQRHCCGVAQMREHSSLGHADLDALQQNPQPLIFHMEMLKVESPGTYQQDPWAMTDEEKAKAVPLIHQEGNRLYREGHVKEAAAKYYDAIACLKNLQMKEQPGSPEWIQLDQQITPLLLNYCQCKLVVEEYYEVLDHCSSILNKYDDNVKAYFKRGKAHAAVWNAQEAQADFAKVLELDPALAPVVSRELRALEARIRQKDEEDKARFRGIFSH

[4] = biological target: T3, USP22 C171 (Q9UPT9) (Homo sapiens, UniProt Q9UPT9); details: 250 μM, in vitro, Ramos
T3 sequence (Q9UPT9 1-525): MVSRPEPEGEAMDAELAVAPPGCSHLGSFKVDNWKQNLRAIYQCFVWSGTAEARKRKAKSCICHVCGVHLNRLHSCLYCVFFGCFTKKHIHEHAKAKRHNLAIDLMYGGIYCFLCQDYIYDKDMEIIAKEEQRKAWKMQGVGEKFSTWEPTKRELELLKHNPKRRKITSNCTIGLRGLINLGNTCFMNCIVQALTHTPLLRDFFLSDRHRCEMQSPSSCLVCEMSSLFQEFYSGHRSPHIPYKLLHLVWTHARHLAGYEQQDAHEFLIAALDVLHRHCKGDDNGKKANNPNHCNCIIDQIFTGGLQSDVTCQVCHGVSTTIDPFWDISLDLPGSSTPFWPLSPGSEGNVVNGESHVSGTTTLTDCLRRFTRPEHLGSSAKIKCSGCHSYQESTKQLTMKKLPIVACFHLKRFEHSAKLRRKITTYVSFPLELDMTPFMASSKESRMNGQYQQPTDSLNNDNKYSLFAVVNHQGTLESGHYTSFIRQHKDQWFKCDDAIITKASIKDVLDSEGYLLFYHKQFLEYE

Sequence of IDH1 C269 (O75874) (O75874 whole entry): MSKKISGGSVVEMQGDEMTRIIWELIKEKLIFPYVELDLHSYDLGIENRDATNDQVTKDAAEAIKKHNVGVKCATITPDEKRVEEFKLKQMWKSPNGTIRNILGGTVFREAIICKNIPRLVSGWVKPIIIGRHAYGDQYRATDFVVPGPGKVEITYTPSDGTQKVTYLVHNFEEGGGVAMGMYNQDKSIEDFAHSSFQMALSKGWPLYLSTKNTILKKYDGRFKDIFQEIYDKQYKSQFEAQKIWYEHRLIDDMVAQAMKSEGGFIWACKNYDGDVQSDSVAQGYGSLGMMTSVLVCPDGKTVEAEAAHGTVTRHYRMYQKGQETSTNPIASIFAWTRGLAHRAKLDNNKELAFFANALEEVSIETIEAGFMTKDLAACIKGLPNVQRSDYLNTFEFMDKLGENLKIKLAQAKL

R value (DMSO/fragment) ([1]; MDA-MB-231): 1.6
R value (DMSO/fragment) ([1]; Ramos): 0.6
R value (DMSO/fragment) [2]: 0.1
R value (DMSO/fragment) ([3]; MDA-MB-231): 2.5
R value (DMSO/fragment) ([3]; Ramos): 0.3
R value (DMSO/fragment) [4]: 4.0
SMILES: COc1ccc(C2CC(c3cccs3)=NN2C(=O)CCl)cc1 (stereo not drawn) [compound 4]
